We go through 5 compounds from patent US10053422B2, “Compounds for the treatment of mTOR pathway related diseases” (Pitney Pharmaceuticals Pty Limited, priority 2012, dated 2018).

“Also recorded” adds a separate entry of the source. Read-outs that look alike come from different tables or passages of the source.

Assay [1] relates to HUVEC (human umbilical vein endothelial cells). The assay can be described thus: SRB cell proliferation assay, HUVEC. The class given is cell-based. The procedure:
(§1) Cell proliferation was assessed using the sulforhodamine B (SRB) assay. Cells seeded in 96-well plate (2,000-3,000 cell/well) were treated with MPL (0, 1, 5, 10, 25, 50 and 100 μmol/L) for 72 h. Cells were then fixed, washed and stained with 100 μl of 0.4% (w/v) SRB dissolved in 1% acetic acid. Unbound dye was removed by five washes with 1% acetic acid before air drying. Bound SRB was solubilized with 100 μl of 10 mM Tris base (pH 10.5) and the absorbance read at 570 nm. Exactly the same procedure was used to assess MPL-SO2. Both agents were dissolved in ethanol and diluted with media to give the final concentrations required for cell culture assays.

The subject of another assay is A2780 cells. The experiment in a line: SRB cell proliferation assay, A2780. Type of assay: cell-based, human. The procedure: as §1
The test system of the next assay is OVCAR-3 cells. The assay can be described thus: SRB cell proliferation assay, OVCAR-3. Type of assay: cell-based, human. The procedure:
as §1

Assay [2] concerns CHO (Chinese hamster ovarian cells). The assay can be described thus: SRB cell proliferation assay, CHO. Type of assay: cell-based. The note with it: Cricetulus griseus. The procedure:
as §1

The subject of another assay is nematodes. The note with it: previously shown; cited from earlier work.
Assay [3] concerns HT-29 cells (colorectal cancer). The experiment in a line: SRB cell proliferation assay, HT-29. The note with it: Homo sapiens; HT-29, colorectal cancer (Table 2); read-out: IC50 in suppressing proliferation. The class given is cell-based. The procedure: as §1
Another assay relates to SKOV-3 cells. The assay can be described thus: SRB cell proliferation assay, SKOV-3. The class given is cell-based. The conditions noted are these: Homo sapiens, SK-OV-3. On the procedure:
as §1

In a further assay the test system is T47-D cells. The assay can be described thus: SRB cell proliferation assay, T47-D. Type of assay: cell-based. The note with it: Homo sapiens, T47D, breast cancer (Table 2), read-out: IC50 in suppressing proliferation. On the procedure:
as §1

The test system of a further assay is U87 glioma cells. The experiment in a line: Autophagy (vacuoles, LC3-II), U87. The note with it: U87 glioma cells. The class given is cell-based. The text has this: Autophagy is a characteristic of mTOR inhibition.
Concentration-dependent conversion of LC3-I to LC3-II confirms the increasing phenomenon of autophagy in these cells.

The test system of a further assay is 1A9 cells. The assay can be described thus: SRB cell proliferation assay, 1A9. The class given is cell-based. The note with it: Homo sapiens. The procedure: as §1
Another assay deals with T98G cells (glioma). The assay can be described thus: SRB cell proliferation assay, T98G. The class given is cell-based. The conditions noted are these: Homo sapiens, glioma (Table 2), read-out: IC50 in suppressing proliferation. The procedure: as §1
In the next assay the test system is 3T3 fibroblast. The experiment in a line: SRB cell proliferation assay, 3T3. The class given is cell-based. The conditions noted are these: 3T3, fibroblast (Table 2); read-out: IC50 in suppressing proliferation. On the procedure: as §1
A further assay has as its system HeLa cells. The assay can be described thus: SRB cell proliferation assay, HeLa. The note with it: Homo sapiens, epithelial (adenocarcinoma) (Table 2), read-out: IC50 in suppressing proliferation. The class given is cell-based. The procedure: as §1
The next assay has as its system MCF-7 cells. The experiment in a line: SRB cell proliferation assay, MCF-7. Type of assay: cell-based. The conditions noted are these: Homo sapiens, MCF7. On the procedure: as §1
The subject of a further assay is U87 cells (glioblastoma). The assay can be described thus: SRB cell proliferation assay, U87. The class given is cell-based. The conditions noted are these: Homo sapiens, U-87 MG. The procedure:
as §1

The test system of another assay is HaCat keratinocyte. The assay can be described thus: SRB cell proliferation assay, HaCat. Type of assay: cell-based. The conditions noted are these: Homo sapiens, keratinocyte (Table 2), read-out: IC50 in suppressing proliferation. The procedure:
as §1

In assay [4] the test system is HT-29 5m11 cells (colorectal cancer). The assay can be described thus: SRB cell proliferation assay, HT-29 5m11. Type of assay: cell-based. The note with it: Homo sapiens; HT-29 5m11, colorectal cancer (Table 2); read-out: IC50 in suppressing proliferation. The procedure: as §1
In a further assay the test system is LN-18 cells (glioma). The assay can be described thus: SRB cell proliferation assay, LN-18. The note with it: Homo sapiens; LN-18, glioma (Table 2); read-out: IC50 in suppressing proliferation. Type of assay: cell-based. The procedure: as §1
A further assay deals with cancer cell lines. The assay can be described thus: SRB cell proliferation assay, range of cancer cell lines (general statements). The class given is cell-based. On the procedure:
as §1
In brief, MPL and MPL-SO2 were tested in vitro against a wide range of cancer cell-lines with extensively different disease characteristics. For further detailed studies, human ovarian cancer cell lines OVCAR-3 and A2780 were chosen. Additionally, normal human ovarian surface epithelial cells (HOSE) and were cultured in the presence of MPL (0, 5, 10, 25, 50 and 100 μM) for 72 h. Cell viability was assessed using Trypan blue assay (FIG. 9). Similarly, effect of MPL on the growth of normal epithelial, endothelial, embryonic and fetal cells were investigated (FIG. 10) while cell proliferation was assessed using the SRB assay (FIG. 11). Control (vehicle treated) cells were taken to present 100% proliferation and the MPL treated groups are expressed as percentage of control±SEM. Each drug concentration was tested in quadruplicate and each experiment was repeated at least twice. For statistical comparisons, each drug treated group is compared to the control group using Student's t test. To examine concentration dependent drug effect, analysis of variance (ANOVA) was used. P values are: *=<0.05; **<0.01 and ***=<0.001, **** p<0.0001. […] In order to find out if the MPL effect is mediated through the nicotinic acetyl choline receptor and in particular the nACHR7 subtype, cells were pretreated with antagonists and then exposed to MPL (FIG. 12).

In assay [5] the test system is HCT-116 cells (colorectal cancer). The assay can be described thus: SRB cell proliferation assay, HCT-116. The class given is cell-based. The conditions noted are these: Homo sapiens; HCT-116, colorectal cancer (Table 2); read-out: IC50 in suppressing proliferation. On the procedure: as §1
The next assay has as its system MDA-MB-231 cells. The assay can be described thus: SRB cell proliferation assay, MDA-MB-231. The class given is cell-based. The note with it: Homo sapiens. The procedure: as §1
Another assay relates to IGROV-1 cells. The experiment in a line: SRB cell proliferation assay, IGROV-1. The class given is cell-based. The conditions noted are these: Homo sapiens; IGROV-1, ovarian cancer (Table 2); read-out: IC50 in suppressing proliferation. The procedure:
as §1

Setting [6] is: HUVEC = human umbilical vein endothelial cells (Table 3), read-out: IC50 μM HUVEC.
The mark [7] stands for this setting: A2780, human epithelial ovarian cancer (Table 3), read-out: IC50 μM A2780.
Where [8] appears, read: OVCAR-3, human epithelial ovarian cancer (Table 3), read-out: IC50 μM OVCAR-3.
[9] abbreviates: CHO = Chinese hamster ovarian cells (Table 3), read-out: IC50 μM CHO.

Take `CC(C#N)(COc1cc(F)ccc1Cl)NC(=O)c1ccc(OC(F)(F)F)cc1` (stereo not shown) [AAD 004]: the IC50 turned out to be 93 µM in [1] (setting [6]), 27.3 ± 0.5 µM with A2780 cells (setting [7]), 18.6 ± 2.4 µM in the assay on OVCAR-3 cells (setting [8]) and 57.3 µM in assay [2] (setting [9]).
With `CC(C#N)(COc1cc(F)c(F)cc1Br)NC(=O)c1ccc(OC(F)(F)F)cc1` (stereo not shown) [AAD 1336], the IC50 came to 61.3 µM in assay [1] (setting [6]), 17 ± 1.2 µM in the assay with A2780 cells (setting [7]), 14.7 ± 1.25 µM in the assay on OVCAR-3 cells (setting [8]) and 31.8 µM in [2] (setting [9]). Further, the “ratio of IC50 values (normal cell/cancer cell)” value in the assay with OVCAR-3 cells (results of Table 3) is “particularly high activity”.
Turning to `CC(C#N)(COc1cc(F)c(F)cc1C(F)(F)F)NC(=O)c1ccc(OC(F)(F)F)cc1` (stereo not shown) [AAD 1470], the IC50 is 74 µM in [1] (setting [6]), 19.5 ± 4.1 µM in the assay with A2780 cells (setting [7]), 12.9 ± 0.3 µM in the assay with OVCAR-3 cells (setting [8]) and 32.2 µM in [2] (setting [9]). Further, the “ratio of IC50 values (normal cell/cancer cell)” value in the assay on OVCAR-3 cells (results of Table 3) is recorded as “particularly high activity”.
On to `C[C@@](C#N)(COc1cc(C#N)ccc1C(F)(F)F)NC(=O)c1ccc(SC(F)(F)F)cc1` [AAD 2224, N-[(1R)-1-cyano-2-(5-cyano-2-trifluoromethyl-phenoxy)-1-methyl-ethyl]-4-trifluoromethylsulfanyl-benzamide], for which the IC50 in assay [1] (setting [6]) worked out at 109 µM; in the assay with A2780 cells (setting [7]), 14.8 ± 0.45 µM; in the assay on OVCAR-3 cells (setting [8]) it was 8 ± 0.7 µM; in [2] (setting [9]), 23.4 µM. Also, in the assay with OVCAR-3 cells (results of Table 3), the “potency of MPL-(R) compared with MPL-(S)” value is “equipotent”. Also, in the assay on OVCAR-3 cells (results of Table 3), the “ratio of IC50 values (normal cell/cancer cell)” value is “particularly high activity”. Moreover, the anthelmintic activity result in the assay with nematodes is reported as “no anthelmintic activity”.
On to `C[C@](C#N)(COc1cc(C#N)ccc1C(F)(F)F)NC(=O)c1ccc(S(=O)(=O)C(F)(F)F)cc1` [MPL-SO2, monepantel sulphone], for which the IC50 in assay [3] was determined as 2.75 ± 0.7 µM; in the assay on SKOV-3 cells (SKOV-3, ovarian cancer (Table 2), read-out: IC50 in suppressing proliferation) it was 26 µM; in the assay on SKOV-3 cells (SKOV-3, ovarian cancer, 72 h, SRB assay (Table 1), read-out: IC50), 26 µM; in the assay on T47-D cells, 10.2 ± 0.6 µM; in the assay on 1A9 cells (1A9, ovarian cancer (Table 2), read-out: IC50 in suppressing proliferation) it was 3.42 ± 0.1 µM; in the assay with 1A9 cells (1A9, ovarian cancer, 72 h, SRB assay (Table 1), read-out: IC50), 4.8 µM. Also, the IC50 in the assay on T98G cells (glioma) is 25.4 ± 0.28 µM; with 3T3 fibroblast it was 11.2 ± 1.1 µM; with HeLa cells, 18.2 ± 2.6 µM; in the assay with MCF-7 cells (MCF-7, breast cancer (Table 2), read-out: IC50 in suppressing proliferation), 8 ± 0.7 µM; in the assay with MCF-7 cells (MCF-7, breast cancer, 72 h, SRB assay (Table 1), read-out: IC50), 7.3 µM; with U87 cells (glioblastoma) (U87, glioblastoma, 72 h, SRB assay (Table 1), read-out: IC50) it was 20.5 µM. The IC50 was 20.5 ± 1 µM with U87 cells (glioblastoma) (U87, glioma (Table 2), read-out: IC50 in suppressing proliferation); 42.7 ± 8 µM in the assay with HaCat keratinocyte; 21.7 µM in assay [4]; 6.64 ± 0.71 µM in the assay on LN-18 cells (glioma); 47 µM in [1] (Homo sapiens, HUVEC (Table 2), read-out: IC50 in suppressing proliferation); 47.8 µM in assay [1] (Homo sapiens, HUVEC, 72 h, SRB assay (Table 1), read-out: IC50). Besides, the IC50 with A2780 cells (Homo sapiens, A2780, ovarian cancer (Table 2), read-out: IC50 in suppressing proliferation) was 4.2 µM; in the assay on A2780 cells (Homo sapiens, A2780, ovarian cancer, 72 h, SRB assay (Table 1), read-out: IC50) it was 4.2 µM; in assay [5], 22.5 ± 5.7 µM; in the assay on OVCAR-3 cells (Homo sapiens, OVCAR-3, ovarian cancer (Table 2), read-out: IC50 in suppressing proliferation), 5.5 ± 1.3 µM; in the assay with OVCAR-3 cells (Homo sapiens, OVCAR-3, ovarian cancer, 72 h in vitro treatment, SRB assay (Table 1), read-out: IC50), 5.5 µM; with MDA-MB-231 cells (MDA-MB-231, breast cancer (Table 2), read-out: IC50 in suppressing proliferation) it was 21.6 µM. The IC50 turned out to be 23.6 µM in the assay on MDA-MB-231 cells (MDA-MB-231, breast cancer, 72 h, SRB assay (Table 1), read-out: IC50); 4.4 ± 1.5 µM in the assay on IGROV-1 cells; 73.7 ± 6 µM in assay [2] (CHO (Table 2), read-out: IC50 in suppressing proliferation); 73.7 µM in assay [2] (CHO, 72 h, SRB assay (Table 1), read-out: IC50). Also, in the assay with U87 glioma cells, the “formation of vacuoles (autophagy)” value was “formation of vacuoles”. The “viability of cancer cell-lines growing in culture” value in the assay on cancer cell lines is reported as “reduced viability”. Besides, the “potency compared with MPL in suppressing cancer cell proliferation” value in the assay on cancer cell lines (SRB proliferation assay) is on record as “as potent as MPL; also recorded: as effective as MPL”.
